Results reported in patent publication US10669272B2, “Substituted naphthyridinone compounds useful as T cell activators” (BRISTOL-MYERS SQUIBB COMPANY, priority 2018, dated 2020).
Like-named read-outs stand apart in the source and are kept apart here.

Legend:
[1] = target: T1, human DGKζ (Homo sapiens, UniProt Q13574); assay: DGKζ LIPGLO assay (extruded liposome substrate), in vitro DGK inhibition; type: biochemical; settings: liposome (LIPGLO) assay; read-out: DGKz LIPGLO IC50
T1 construct: TVMV protease cleavage site (C); Hexa-His (C); made in house; host or cells: Sf9 insect cells (baculovirus, Bac-to-Bac)

[2] = test system: Human venous whole blood; assay: Human whole blood IFN-γ assay; type: cell-based; settings: human whole blood, normalized to 3 μM reference compound with anti-CD3 plus anti-CD28 as 100% activation, read-out: INFg Whole Blood Normalized Agonist EC50;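 note: blood from healthy donors exposed to compound for 1 h before stimulation with anti-CD3 and anti-CD28 at 1 µg/mL each, IFN-γ quantified in supernatant by AlphaLISA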
[3] = target: T2, human DGKα (Homo sapiens, UniProt P23743); assay: DGKα LIPGLO assay (extruded liposome substrate), in vitro DGK inhibition; type: biochemical; settings: liposome (LIPGLO) assay; read-out: DGKa LIPGLO IC50
T2 construct: TVMV protease cleavage site (C); Hexa-His (C); made in house; host or cells: Sf9 insect cells (baculovirus, Bac-to-Bac)
T2 sequence (P23743 with tags, fused parts or gaps): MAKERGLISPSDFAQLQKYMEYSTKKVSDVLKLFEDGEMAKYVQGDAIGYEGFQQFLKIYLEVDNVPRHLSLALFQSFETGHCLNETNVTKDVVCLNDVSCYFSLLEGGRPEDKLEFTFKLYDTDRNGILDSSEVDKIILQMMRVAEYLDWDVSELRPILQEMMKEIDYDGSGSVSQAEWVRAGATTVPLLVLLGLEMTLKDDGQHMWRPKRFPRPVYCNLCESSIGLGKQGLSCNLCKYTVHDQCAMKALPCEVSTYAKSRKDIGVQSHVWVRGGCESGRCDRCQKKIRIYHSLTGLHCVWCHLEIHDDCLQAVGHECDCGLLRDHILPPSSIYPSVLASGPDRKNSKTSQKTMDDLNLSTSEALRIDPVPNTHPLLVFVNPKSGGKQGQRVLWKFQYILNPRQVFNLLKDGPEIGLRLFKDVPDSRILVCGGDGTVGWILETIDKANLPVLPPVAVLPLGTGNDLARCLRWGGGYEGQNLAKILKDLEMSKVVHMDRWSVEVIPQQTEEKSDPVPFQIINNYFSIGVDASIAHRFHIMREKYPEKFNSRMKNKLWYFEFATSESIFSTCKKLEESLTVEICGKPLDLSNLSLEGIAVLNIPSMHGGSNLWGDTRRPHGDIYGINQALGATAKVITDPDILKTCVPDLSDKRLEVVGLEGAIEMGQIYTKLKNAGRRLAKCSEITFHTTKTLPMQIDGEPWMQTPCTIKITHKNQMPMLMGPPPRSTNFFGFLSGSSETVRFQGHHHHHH

T1 sequence (Q13574 with tags, fused parts or gaps isoform Q13574-4): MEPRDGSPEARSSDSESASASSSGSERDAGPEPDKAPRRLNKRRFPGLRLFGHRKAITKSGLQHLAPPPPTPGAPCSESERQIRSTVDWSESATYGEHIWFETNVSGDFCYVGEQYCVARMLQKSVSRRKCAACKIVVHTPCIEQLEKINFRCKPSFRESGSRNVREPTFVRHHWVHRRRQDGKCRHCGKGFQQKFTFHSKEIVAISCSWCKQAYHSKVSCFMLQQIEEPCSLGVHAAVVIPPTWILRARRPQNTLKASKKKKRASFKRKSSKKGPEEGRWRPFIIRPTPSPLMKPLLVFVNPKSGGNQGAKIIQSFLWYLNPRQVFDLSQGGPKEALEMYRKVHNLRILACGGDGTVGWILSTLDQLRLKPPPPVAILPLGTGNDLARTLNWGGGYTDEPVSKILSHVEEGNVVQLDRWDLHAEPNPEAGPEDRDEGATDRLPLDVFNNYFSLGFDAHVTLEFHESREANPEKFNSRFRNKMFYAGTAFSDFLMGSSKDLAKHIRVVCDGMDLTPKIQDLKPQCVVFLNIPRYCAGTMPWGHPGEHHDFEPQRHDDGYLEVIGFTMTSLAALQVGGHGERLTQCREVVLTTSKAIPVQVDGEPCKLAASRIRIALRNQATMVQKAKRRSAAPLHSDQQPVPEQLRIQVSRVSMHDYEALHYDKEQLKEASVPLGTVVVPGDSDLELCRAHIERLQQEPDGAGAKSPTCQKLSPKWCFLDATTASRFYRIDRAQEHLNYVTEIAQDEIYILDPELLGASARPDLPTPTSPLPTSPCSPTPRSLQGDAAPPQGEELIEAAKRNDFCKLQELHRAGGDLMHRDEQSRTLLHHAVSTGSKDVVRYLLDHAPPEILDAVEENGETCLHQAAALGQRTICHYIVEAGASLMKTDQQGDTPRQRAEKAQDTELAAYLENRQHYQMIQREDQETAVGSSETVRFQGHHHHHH

IC50 [1] [nM]	IC50 [3] [nM]	SMILES	EC50 [2] [nM]	EC50 ([2]; Homo sapiens, 24 h) [nM]
1700	290	CC(c1ccc(OC(F)(F)F)cc1)N1C[C@H](C)N(c2cc(=O)n(C)c3ccc(C#N)nc23)C[C@H]1CC#N (single isomer, unassigned) [Example 1412]	–	1600
4900	40000	CC(c1ccc(OC(F)(F)F)cc1)N1C[C@H](C)N(c2cc(=O)n(C)c3ccc(C#N)nc23)C[C@H]1CN(C)C (single isomer, unassigned) [Example 1414]	–	10000
1100	1600	CCC(c1ccc(OCC2CC2)cc1)N1C[C@H](C)N(c2cc(=O)n(C)c3ccc(C#N)nc23)C[C@H]1C (single isomer, unassigned) [Example 1440]	–	2100
4800	20000	CC(c1ccc(OC(C)(C)C)cc1)N1C[C@H](C)N(c2cc(=O)n(C)c3ccc(C#N)nc23)C[C@H]1C (single isomer, unassigned) [Example 1441]	5400	–
1000	65	CC(c1ccc(OC(C)(C)C)cc1)N1C[C@H](C)N(c2cc(=O)n(C)c3ccc(C#N)nc23)C[C@H]1C (single isomer, unassigned) [Example 1442]	530	–
240	56	CCC(c1ccc(OC(C)(C)C)cc1)N1C[C@H](C)N(c2cc(=O)n(C)c3ccc(C#N)nc23)C[C@H]1C (single isomer, unassigned) [Example 1443]	–	810
3600	5400	CCC(c1ccc(OCCC2CC2)cc1)N1C[C@H](C)N(c2cc(=O)n(C)c3ccc(C#N)nc23)C[C@H]1C (single isomer, unassigned) [Example 1445]	5300	–
230	260	CCC(c1ccc(OCCC2CC2)cc1)N1C[C@H](C)N(c2cc(=O)n(C)c3ccc(C#N)nc23)C[C@H]1C (single isomer, unassigned) [Example 1446]	230	–
24	280	CCC(c1ccc(OC(C)C)cc1)N1C[C@H](C)N(c2cc(=O)n(C)c3ccc(C#N)nc23)C[C@H]1CC (single isomer, unassigned) [Example 1447]	50	–
1700	4200	CCC(c1ccc(OC(C)C)cc1)N1C[C@H](C)N(c2cc(=O)n(C)c3ccc(C#N)nc23)C[C@H]1CC (single isomer, unassigned) [Example 1448]	1600	–
350	610	CCC(c1ccc(OC(C)C)cc1)N1C[C@H](C)N(c2cc(=O)n(C)c3ccc(C#N)nc23)C[C@H]1C (single isomer, unassigned) [Example 1449]	870	–
3600	22000	CCC(c1ccc(OC(C)C)cc1)N1C[C@H](C)N(c2cc(=O)n(C)c3ccc(C#N)nc23)C[C@H]1C (single isomer, unassigned) [Example 1450]	6800	–

Second part, the compound before the results:

SMILES	IC50 [1] [nM]	IC50 [3] [nM]	EC50 [2] [nM]	EC50 ([2]; Homo sapiens, 24 h) [nM]
COC[C@@H]1CN(c2cc(=O)n(C)c3ccc(C#N)nc23)[C@@H](C)CN1C(c1ccc(F)cc1)c1ccon1 (single isomer, unassigned) [Example 1399]	450	160	3000	–
COC[C@@H]1CN(c2cc(=O)n(C)c3ccc(C#N)nc23)[C@@H](C)CN1C(c1ccc(F)cc1)c1ccon1 (single isomer, unassigned) [Example 1400]	20	53	120	–
COCCOC[C@@H]1CN(c2cc(=O)n(C)c3ccc(C#N)nc23)[C@@H](C)CN1C(C)c1ccc(OC(F)(F)F)cc1 (single isomer, unassigned) [Example 1405]	57	960	–	480
COCCOC[C@@H]1CN(c2cc(=O)n(C)c3ccc(C#N)nc23)[C@@H](C)CN1C(C)c1ccc(OC(F)(F)F)cc1 (single isomer, unassigned) [Example 1406]	950	2700	–	12000
CC[C@H]1CN(C(C)c2ccc(OC(F)(F)F)cc2)[C@H](COC)CN1c1cc(=O)n(C)c2ccc(C#N)nc12 (single isomer, unassigned) [Example 1409]	810	9200	–	2300
CC(c1ccc(OC(F)(F)F)cc1)N1C[C@H](C)N(c2cc(=O)n(C)c3ccc(C#N)nc23)C[C@H]1CC#N (single isomer, unassigned) [Example 1411]	1200	200	–	2200
CC(c1ccc(OC(F)(F)F)cc1)N1C[C@H](C)N(c2cc(=O)n(C)c3ccc(C#N)nc23)C[C@H]1CN1CCOCC1 (single isomer, unassigned) [Example 1415]	1800	19000	6900	–
CC(c1ccc(OC(F)(F)F)cc1)N1C[C@H](C)N(c2cc(=O)n(C)c3ccc(C#N)nc23)C[C@H]1CN1CCOCC1 (single isomer, unassigned) [Example 1416]	52000	48000	20000	–
CC(c1ccc(OC(F)(F)F)cc1)N1C[C@H](CO)N(c2cc(=O)n(C)c3ccc(C#N)nc23)C[C@H]1C (single isomer, unassigned) [Example 1419]	680	75	–	1100
CC(c1ccc(OC(F)(F)F)cc1)N1C[C@H](CO)N(c2cc(=O)n(C)c3ccc(C#N)nc23)C[C@H]1C (single isomer, unassigned) [Example 1420]	1700	820	1700	–
Cn1c(=O)c(C#N)c(N2CCN(C(c3ccc(F)cc3)c3ccc(F)cc3)C(CF)C2)c2nc(Br)ccc21 (stereo not drawn) [Example 9, 4-(4-(bis(4-fluorophenyl)methyl)-3-(fluoromethyl)piperazin-1-yl)-6-bromo-1-methyl-2-oxo-1,2-dihydro-1,5-naphthyridine-3-carbonitrile]	9500	2100	–	1600
CC[C@@H]1CN(c2c(F)c(=O)n(C)c3ccc(C#N)nc23)CCN1C(c1ccc(Cl)cc1)c1ccc(Cl)cc1 [Example 178, (R)-8-(4-(bis(4-chlorophenyl)methyl)-3-ethylpiperazin-1-yl)-7-fluoro-5-methyl-6-oxo-5,6-dihydro-1,5-naphthyridine-2-carbonitrile]	390	610	–	580
C[C@@H]1CN(c2cc(=O)n(C)c3ccc(C#N)nc23)[C@@H](C)CN1C(c1ccc(F)cc1)c1cccc(F)c1 (stereo partly drawn) [Example 293, 8-[(2S,5R)-4-[(3-fluorophenyl)(4-fluorophenyl)methyl]-2,5-dimethylpiperazin-1-yl]-5-methyl-6-oxo-5,6-dihydro-1,5-naphthyridine-2-carbonitrile]	160	330	460	–
C[C@@H]1CN(c2c(C#N)c(=O)n(C)c3ccc(C#N)nc23)CCN1C(c1ccc(F)cc1)c1cncnc1 (stereo partly drawn) [Example 318, 8-((3R)-4-((4-fluorophenyl)(pyrimidin-5-yl)methyl)-3-methylpiperazin-1-yl)-5-methyl-6-oxo-5,6-dihydro-1,5-naphthyridine-2,7-dicarbonitrile]	14000	4900	–	7400
C[C@@H]1CN(c2c(C#N)c(=O)n(C)c3ccc(C#N)nc23)CCN1C(c1ccc(F)cc1)c1ccnc(C(C)(C)C)n1 (stereo partly drawn) [Example 321, 8-((3R)-4-((2-(tert-butyl)pyrimidin-4-yl)(4-fluorophenyl)methyl)-3-methylpiperazin-1-yl)-5-methyl-6-oxo-5,6-dihydro-1,5-naphthyridine-2,7-dicarbonitrile]	240	4300	–	950
Cc1ccc(C(c2ccc(C#N)cc2)N2C[C@H](C)N(c3c(F)c(=O)n(C)c4ccc(C#N)nc34)C[C@H]2C)cc1 (stereo partly drawn) [Example 322, 8-((2S,5R)-4-((4-cyanophenyl)(p-tolyl)methyl)-2,5-dimethylpiperazin-1-yl)-7-fluoro-5-methyl-6-oxo-5,6-dihydro-1,5-naphthyridine-2-carbonitrile]	2200	2700	–	2200
C[C@@H]1CN(c2c(F)c(=O)n(C)c3ccc(C#N)nc23)[C@@H](C)CN1C(c1ccc(Cl)cc1)c1ccc(OC(F)(F)F)cc1 (stereo partly drawn) [Example 324, 8-((2S,5R)-4-((4-chlorophenyl)(4-(trifluoromethoxy)phenyl)methyl)-2,5-dimethylpiperazin-1-yl)-7-fluoro-5-methyl-6-oxo-5,6-dihydro-1,5-naphthyridine-2-carbonitrile]	4100	1200	4700	–
C[C@@H]1CN(c2c(F)c(=O)n(C)c3ccc(C#N)nc23)[C@@H](C)CN1C(c1ccc(F)cc1)c1ccc(C(F)(F)F)cc1 (stereo partly drawn) [Example 325, 7-fluoro-8-((2S,5R)-4-((4-fluorophenyl)(4-(trifluoromethyl)phenyl)methyl)-2,5-dimethylpiperazin-1-yl)-5-methyl-6-oxo-5,6-dihydro-1,5-naphthyridine-2-carbonitrile]	2300	680	3200	–
Cc1ccc(C(c2ccc(F)cc2)N2C[C@H](C)N(c3c(F)c(=O)n(C)c4ccc(C#N)nc34)C[C@H]2C)cc1 (stereo partly drawn) [Example 332, 7-fluoro-8-((2S,5R)-4-((4-fluorophenyl)(p-tolyl)methyl)-2,5-dimethylpiperazin-1-yl)-5-methyl-6-oxo-5,6-dihydro-1,5-naphthyridine-2-carbonitrile]	1000	3100	–	1900
